Where “and” joins values, the source holds several entries; their conditions need not be identical. Equal entries are not always repeated. Numbers after ± are expanded uncertainties.
Assay: cn = amount concentration of the nth substance listed, in mol/dm3
Details: 101 kPa, Liquid, c1 = 2; for speed of sound: Linear variable-path acoustic interferometer; for mass density: Pycnometric method

Compound `[Cl-].[K+]` [potassium chloride] + O has a speed of sound (298.15 K) of 1595.2 ± 1.8 m/s, a mass density (298.15 K) of 1089.1 ± 0.4 kg/m3 and a speed of sound (303.15 K) of 1605.9 ± 1.8 m/s. It also gave a mass density (303.15 K) of 1087.5 ± 0.4 kg/m3, a speed of sound (308.15 K) of 1610.2 ± 1.8 m/s and a mass density (308.15 K) of 1085.6 ± 0.4 kg/m3. The speed of sound (313.15 K) was 1616.4 ± 1.8 m/s, the mass density (313.15 K) was 1083.4 ± 0.4 kg/m3 and the speed of sound (318.15 K) was 1621.4 ± 1.8 m/s. For the same compound, the mass density (318.15 K) was 1080.9 ± 0.4 kg/m3, the speed of sound (323.15 K) was 1626.5 ± 1.8 m/s and the mass density (323.15 K) was 1078.3 ± 0.5 kg/m3.
With `O=[N+]([O-])[O-].[K+]` [potassium nitrate] + O the speed of sound (298.15 K) was 1562 ± 1.7 m/s, the mass density (298.15 K) was 1122.9 ± 0.4 kg/m3 and the speed of sound (303.15 K) was 1569.4 ± 1.8 m/s. For the same compound, the mass density (303.15 K) was 1120.6 ± 0.4 kg/m3, the speed of sound (308.15 K) was 1575.8 ± 1.8 m/s and 1575 ± 1.8 m/s and the mass density (308.15 K) was 1118 ± 0.4 kg/m3. The speed of sound (313.15 K) was 1580 ± 1.8 m/s, the mass density (313.15 K) was 1115 ± 0.4 kg/m3 and the speed of sound (318.15 K) was 1584.6 ± 1.8 m/s and 1584.5 ± 1.8 m/s. The mass density (318.15 K) was 1111.8 ± 0.5 kg/m3, the speed of sound (323.15 K) was 1588.9 ± 1.8 m/s and 1588.8 ± 1.8 m/s and the mass density (323.15 K) was 1108.2 ± 0.5 kg/m3.

From the NIST ThermoML archive (doi:10.1016/j.tca.2008.10.023)
